Measured values taken from patent publication US20260027220A1, “EPHA2 BCL-XL INHIBITOR ANTIBODY-DRUG CONJUGATES AND METHODS OF USE THEREOF” (Novartis AG, priority 2022, published 2026).

What was measured:
[1] = system: EBC-1 xenografts; assay: EBC-1 xenograft efficacy, combination with paclitaxel (Table 13, FIG. 1); format: in vivo, mice; conditions: Paclitaxel 12.5 mg/kg SD IV alone; Day 12
Protocol: (§1) EBC-1 cells were cultured at 37° C. (atmosphere of 5% CO2) in DMEM medium (Gibco 11965-084) supplemented with 10% FBS (HI-FBS #134K19, Tet-free). Panc03.27 cells were cultured at 37° C. (atmosphere of 5% CO2) in RPMI-1640 medium (Gibco 11875-085) supplemented with 15% FBS and 10 units/mL recombinant human insulin. Treatment with 0.25% Trypsin (Gibco 25200-056) was used for sub-culturing. To establish EBC-1 and Panc03.27 xenografts, cells were harvested and re-suspended in a 1:1 v/v mixture of phosphate buffered saline and Matrigel. A total of 5×10^6 EBC-1 cells and 10×10^6 Panc03.27 cells were injected subcutaneously in the flanks of female nude mice (Charles River, USA) in a volume of 200 μL. Tumor growth was monitored regularly post cell inoculation, and animals were randomized into treatment groups (n=8) with a mean tumor volume of about 200 mm^3.
(§2) For EBC-1 efficacy studies, EphA2-DANAPA-L11C-P25 ADC, 3207-DANAPA-L11C-P25 isotype control ADC, and EphA2-DANAPA CysMab control antibody were all dosed in combination with paclitaxel (LC Laboratories, Woburn, MA, Cat #: P-9600), as indicated in FIG. 1 and FIG. 2. For Panc03.27 efficacy studies, EphA2-DANAPA-L11C-P25 ADC, 3207-DANAPA-L11C-P25 isotype control ADC, and EphA2-DANAPA CysMab control antibody were all dosed in combination with either gemcitabine (Hospira, NDC Code 0409-0185-01) or the MAPK inhibitors (MAPKi) LXH254 and CFF272, as indicated in FIG. 3 and FIG. 4 respectively. […]
(§3) Tumor volume data were analyzed for statistical significance relative to the EphA2-DANAPA-L11C-P25 ADC combination groups. […]
(§4) As a measure of efficacy, % T/C values were calculated according to the following formula: (Δtumor volume in experimental group/Δtumor volume in vehicle control group)*100. Tumor regression was calculated according to the following formula: (Δtumor volume in experimental group/tumor volume in experimental group at start)*100. Δtumor volumes represent mean tumor volumes on the measurement day minus the mean tumor volume at the start of treatment. […]

[2] = system: EBC-1 xenografts; assay: EBC-1 xenograft efficacy, ADC dose reduction alone or with paclitaxel (Table 14, FIG. 2); format: in vivo, mice; conditions: Paclitaxel 12.5 mg/kg SD IV alone
Protocol: as §1, §2, §3, §4

[3] = system: aspc1; assay: CellTiter-Glo proliferation assay, aspc1; format: cell-based; conditions: single agent, 5 days of treatment
Protocol: (§5) EphA2-L11A-P21 antibody drug conjugate (ADC) alone or in combination with Trametinib were tested against cancer cell lines obtained from ATCC (American Type Culture Collection) or from other commercial cell line vendors. EphA2-L11A-P21 ADC was prepared according to any of the conjugation methods described herein. The cells were cultured in media that is optimal for their growth at 5% CO2, 37° C. in a tissue culture incubator. Prior to seeding for the proliferation assay, the cells were split at least 2 days before the assay to ensure optimal growth density. On the day of seeding, cells were lifted off tissue culture flasks using 0.25% trypsin. Cell viability and cell density were determined using a cell counter (Vi-Cell XR Cell Viability Analyzer, Beckman Coulter). […]
(§6) The ADCs were prepared in standard phosphate buffered solution to desired concentrations. […] The ability of the ADCs to inhibit cell proliferation and survival was assessed using the Promega CellTiter-Glo® proliferation assay. Plates were incubated at room temperature for 20 minutes to stabilize luminescent signals prior to reading using a multimode plate reader (Pherastar, BMG). Luminescent counts of untreated cells were taken the day after seeding (Day 0 readings), and after 5 days of treatment (Day 5 readings). The Day 5 readings of the untreated cells were compared to the Day 0 readings. […]

[4] = system: capan2; assay: CellTiter-Glo proliferation assay, capan2; format: cell-based; conditions: single agent, 5 days of treatment
Protocol: as §5, §6

[5] = system: dv90; assay: CellTiter-Glo proliferation assay, dv90; format: cell-based; conditions: single agent, 5 days of treatment
Protocol: as §5, §6

[6] = system: ebc1; assay: CellTiter-Glo proliferation assay, ebc1; format: cell-based; conditions: single agent, 5 days of treatment
Protocol: as §5, §6

[7] = system: hcc1143; assay: CellTiter-Glo proliferation assay, hcc1143; format: cell-based; conditions: single agent, 5 days of treatment
Protocol: as §5, §6

[8] = system: jhom2b; assay: CellTiter-Glo proliferation assay, jhom2b; format: cell-based; conditions: single agent, 5 days of treatment
Protocol: as §5, §6

[9] = system: ncin87; assay: CellTiter-Glo proliferation assay, ncin87; format: cell-based; conditions: single agent, 5 days of treatment
Protocol: as §5, §6

[10] = system: ocum1; assay: CellTiter-Glo proliferation assay, ocum1; format: cell-based; conditions: single agent, 5 days of treatment
Protocol: as §5, §6

[11] = system: panc0327; assay: CellTiter-Glo proliferation assay, panc0327; format: cell-based; conditions: single agent, 5 days of treatment
Protocol: as §5, §6

[12] = system: skhep1; assay: CellTiter-Glo proliferation assay, skhep1; format: cell-based; conditions: single agent, 5 days of treatment
Protocol: as §5, §6

[13] = system: skmel31; assay: CellTiter-Glo proliferation assay, skmel31; format: cell-based; conditions: single agent, 5 days of treatment
Protocol: as §5, §6

[14] = system: sw403; assay: CellTiter-Glo proliferation assay, sw403; format: cell-based; conditions: single agent, 5 days of treatment
Protocol: as §5, §6

[15] = system: Panc03.27 xenografts; assay: Panc03.27 xenograft efficacy, combination with gemcitabine (Table 15, FIG. 3); format: in vivo, mice; conditions: Gemcitabine 100 mg/kg IP q3dx3 alone
Protocol: as §1, §2, §3, §4

[16] = target: T1, cyno EphA2 ectodomain (cyno, UniProt Q1KL86 25-537); assay: SPR (Biacore 8k), Fab-capture, 37C, 1:1 model; *low binding signal
T1 construct: extracellular domain
Protocol: (§7) A human Fab capture method was utilized in order to determine kinetics for the antibodies. […] Each channel has two flow cells. The reference flow cell contained only immobilized anti-Fab, whereas the reaction flow cell captured anti-EphA2 IgG through anti-Fab. HBS-EP+ Buffer, pH 7.6 was used as the running buffer. The soluble human, mouse and cyno EphA2 ectodomain flowed over both flow cells on 8 channels. The EphA2 ectodomain concentration started at 50 nM and was serially diluted at one part to one part (1:1) in the running buffer for six concentrations. The analysis chamber was kept at 37° C. Regeneration was performed at the end of each sample washing with the solution of 10 mM Glycine-HCl, pH 2.1 provided in the kit.
(§8) The data were analysed using the Biacore Insight Evaluation Software. Double reference subtraction was completed to generate the final data. The raw data was fitted to a 1:1 binding model, with parameter(s) Rₘₐₓ set to local.

[17] = target: T1, cyno EphA2 ectodomain; assay: SPR (Biacore 8k), Fab-capture, 37C, 1:1 model;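 also: Anti-EphA2 IgG captured via immobilized anti-Fab, soluble EphA2 ectodomain as analyte at six twofold dilutions from 50 nM, HBS-EP+ pH 7.6 running buffer, double reference subtraction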
Protocol: as §7, §8

T1 sequence (Q1KL86 25-537): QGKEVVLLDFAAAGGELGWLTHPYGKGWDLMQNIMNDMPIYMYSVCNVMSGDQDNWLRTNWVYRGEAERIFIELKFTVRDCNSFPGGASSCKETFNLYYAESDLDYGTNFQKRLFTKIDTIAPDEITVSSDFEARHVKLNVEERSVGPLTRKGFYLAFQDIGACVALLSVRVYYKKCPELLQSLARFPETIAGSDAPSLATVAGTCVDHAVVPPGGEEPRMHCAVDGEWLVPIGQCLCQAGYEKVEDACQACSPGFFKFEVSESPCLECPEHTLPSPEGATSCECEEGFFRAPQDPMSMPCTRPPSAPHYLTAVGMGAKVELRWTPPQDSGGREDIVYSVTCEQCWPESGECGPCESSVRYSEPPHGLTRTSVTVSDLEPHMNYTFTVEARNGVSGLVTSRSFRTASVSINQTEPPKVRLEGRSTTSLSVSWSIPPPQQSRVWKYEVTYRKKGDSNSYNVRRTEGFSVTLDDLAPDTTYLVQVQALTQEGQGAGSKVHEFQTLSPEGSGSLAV

Molecule: CC(=O)O[C@H]1C(=O)[C@@]2(C)[C@H]([C@H](OC(=O)c3ccccc3)[C@]3(O)C[C@H](OC(=O)[C@H](O)[C@@H](NC(=O)c4ccccc4)c4ccccc4)C(C)=C1C3(C)C)[C@]1(OC(C)=O)CO[C@@H]1C[C@@H]2O [Paclitaxel, paclitaxel]
- % T/C [1]: 46%
- Complete Responders [1]: 0/8
- ΔTumor volume (mm^3 ± SEM) [1]: 687 ± 224 mm^3
- % T/C ([2]; Day 14): 71%
- ΔTumor volume (mm^3 ± SEM) ([2]; Day 14): 649 ± 97 mm^3
- Complete Responders ([2]; Day 16): 0/8

Molecule: Cc1c(Nc2nc3ccccc3s2)nnc2c1CCCN2c1ccc(-c2cnn(C[C@]34C[C@]5(C)C[C@](C)(C3)C[C@@](OCCN3CCCC3)(C5)C4)c2C)c(C(=O)O)n1 [P21, 6-[3-(1,3-benzothiazol-2-ylamino)-4-methyl-6,7-dihydro-5H-pyrido[2,3-c]pyridazin-8-yl]-3-[1-[[3,5-dimethyl-7-(2-pyrrolidin-1-ylethoxy)-1-adamantyl]methyl]-5-methyl-pyrazol-4-yl]pyridine-2-carboxylic acid]
- GI50 ([3]; Homo sapiens, 120 h): 42.2 nM
- GI Amax [3]: 2.18
- GI50 ([4]; Homo sapiens, Capan-2, 120 h): 4.38 nM
- GI Amax [4]: −81.72
- GI50 ([5]; Homo sapiens, DV-90, 120 h): 266 nM
- GI Amax [5]: 16.76
- GI50 ([6]; Homo sapiens, EBC-1, 120 h): 0.26 nM
- GI Amax [6]: −96.78
- GI50 ([7]; Homo sapiens, 120 h): 0.99 nM
- GI Amax [7]: −43.38
- GI50 ([8]; 120 h): 68.8 nM
- GI Amax [8]: −27.63
- GI50 ([9]; Homo sapiens, NCI-N87, 120 h): 0.77 nM
- GI Amax [9]: −29.31
- GI50 ([10]; 120 h): 0.49 nM
- GI Amax [10]: −94.77
- GI50 ([11]; Homo sapiens, PANC-03-27, 120 h): 2.35 nM
- GI Amax [11]: −79.2
- GI50 ([12]; Homo sapiens, SK-HEP1, 120 h): 0.05 nM
- GI Amax [12]: −75.34
- GI50 ([13]; 120 h): 0.05 nM
- GI Amax [13]: −56.5
- GI50 ([14]; Homo sapiens, SW-403, 120 h): 5.32 nM
- GI Amax [14]: −64.33

Molecule: Nc1ccn([C@@H]2O[C@H](CO)[C@@H](O)C2(F)F)c(=O)n1 [Gemcitabine]
- % T/C ([15]; Day 11): 31%
- ΔTumor volume (mm^3 ± SEM) ([15]; Day 11): 153 ± 39 mm^3
- Complete Responders ([15]; Day 34): 0/8

B1: anti-EphA2 E152C S375C 1C1 (LC S10T) hIgG1 (WT Heavy Chain) (antibody, V domains shown)
VH: EVQLLESGGGLVQPGGSLRLSCAASGFTFSHYMMAWVRQAPGKGLEWVSRIGPSGGPTHYADSVKGRFTISRDNSKNTLYLQMNSLRAEDTAVYYCAGYDSGYDYVAVAGPAEYFQHWGQGTLVTVSS
VL: DIQMTQSPSTLSASVGDRVTITCRASQSISTWLAWYQQKPGKAPKLLIYKASNLHTGVPSRFSGSGSGTEFSLTISGLQPDDFATYYCQQYNSYSRTFGQGTKVEIKR
notes: also called BB-60-FO04
- Kd [16]: 196 nM

B2: anti-EphA2 IgG antibody 1C1 (antibody, V domains shown)
VH: EVQLLESGGGLVQPGGSLRLSCAASGFTFSHYMMAWVRQAPGKGLEWVSRIGPSGGPTHYADSVKGRFTISRDNSKNTLYLQMNSLRAEDTAVYYCAGYDSGYDYVAVAGPAEYFQHWGQGTLVTVSS
VL: DIQMTQSPSSLSASVGDRVTITCRASQSISTWLAWYQQKPGKAPKLLIYKASNLHTGVPSRFSGSGSGTEFSLTISGLQPDDFATYYCQQYNSYSRTFGQGTKVEIK
notes: Tested as IgG; also called 1C1 WT IgG; iProt 120126
- Kd [17]: 265 nM

B3: 1C1 ADC (antibody, V domains shown)
VH: EVQLLESGGGLVQPGGSLRLSCAASGFTFSHYMMAWVRQAPGKGLEWVSRIGPSGGPTHYADSVKGRFTISRDNSKNTLYLQMNSLRAEDTAVYYCAGYDSGYDYVAVAGPAEYFQHWGQGTLVTVSS
VL: DIQMTQSPSSLSASVGDRVTITCRASQSISTWLAWYQQKPGKAPKLLIYKASNLHTGVPSRFSGSGSGTEFSLTISGLQPDDFATYYCQQYNSYSRTFGQGTKVEIK
modifications: antibody-drug conjugate; linker-payload and conjugation sites not stated for this sample
notes: Antibody-drug conjugate of 1C1; also called XD-01-KE85
- Kd [17]: 220 nM

B4: LC Germ (1C1) (antibody, V domains shown)
VH: EVQLLESGGGLVQPGGSLRLSCAASGFTFSHYMMAWVRQAPGKGLEWVSRIGPSGGPTHYADSVKGRFTISRDNSKNTLYLQMNSLRAEDTAVYYCAGYDSGYDYVAVAGPAEYFQHWGQGTLVTVSS
VL: DIQMTQSPSSLSASVGDRVTITCRASQSISTWLAWYQQKPGKAPKLLIYKASNLHTGVPSRFSGSGSGTEFSLTISGLQPDDFATYYCQQYNSYSRTFGQGTKVEIK
notes: also called lots BA-71-QS06, HE-38-AZ34
- Kd [17]: 224 nM
